Test results taken from patent US5140025A, “Thienotricylene for the treatment of bronchial diseases” (BYK Gulden Lomberg Chemische Fabrik GmbH, priority 1987, dated 1992).

What was measured:
[1] = test system: acetylcholine-induced bronchospasm; assay: Acetylcholine-induced bronchospasm in anaesthetised, spontaneously breathing guinea pigs, intravenous administration; format: in vivo, guinea pig (Pirbright White); conditions: for Mean bronchospasmolytic activity, percentage increase of Vmaxe vs control spasm / Mean bronchospasmolytic activity, percentage increase of tidal volume (TV) vs control spasm: 0-60 min; for Mean bronchospasmolytic activity, percentage increase of Vmaxe vs control spasm / Mean bronchospasmolytic activity, percentage increase of tidal volume (TV) vs control spasm / Bronchospasmolytic activity, percentage increase of Vmaxe vs control spasm / Bronchospasmolytic activity, percentage increase of tidal volume (TV) vs control spasm: x±SEM, N=10; for Bronchospasmolytic activity, percentage increase of Vmaxe vs control spasm / Bronchospasmolytic activity, percentage increase of tidal volume (TV) vs control spasm: at 60 min
Description: Effect of Intravenously Administered Telenzepine on Acetylchline-Induced Bronchospasms in Anaesthetised, Spontaneously Breathing Guinea Pigs
Method for simultaneously recording pharmacodynamic or toxic effects on interior sensitive receptors and the respiration of guinea pigs (U. Kilian, E. Muller, E. Ch. Dittmann and J. Hamacher, Arzneim.-Forsch. 28, 1699-1708, 1978).
Pirbright White, Interfauna (Tuttlingen), 350-450 g, male.
Ethylurethane 1.2 g/kg i.p. as 12.5% aqueous solution.
Pneumotachogram: Maximum flow velocities of the respiratory air during expiration (Vmaxe, "peak flow"), tidal volume (TV).
Acetylcholine as spasmogen, 0.2-0.3 μmol/kg i.v., dissolved in 0.9% NaCl.
-10 min control spasm, 0 min administration of substance, +2, +10, +20, +30, +60 min test spasms.
Determination of the effect of telenzepine on the parameters (mean and standard error of mean, n=10) and calculation of the bronchospasmolytic activity from this as percentage inhibition of the acetylcholine-induced decrease of Vmaxe and TV by means of time/effect curves. Computation of a dose/response curve of the mean bronchospasmolytic activity during the observation time (0-60 min) from the areas under the time/effect curves and reading of 1 h ED50 values. Determination of a dose/response curve of the bronchospasmolytic activity at time 60 min and reading ED50 values.

[2] = molecular target: M1 receptor (ganglionic); assay: Receptor affinity, electrically stimulated rabbit vas deferens in organ bath; conditions: vas deferens of the rabbit, agonist McN-A-343, Schild slope normalised to 1.00; listed as Compound 1
Description: Isometric contractions (HSE force transducer, K-30; tilt and zones, BD-9 chart recorder) of isolated seminal duct sections of rabbits (male, white New Zealand rabbits, 2.5-3.5 kg) were recorded in an organ bath (10 ml, 31° C., gassing with carbogen, initial tension of the organs 0.75 g) under electrical stimultion (HSE stimulator; hook-shaped Pt electrode 1 cm below the water surface of the bath; 30 V, 0.5 ms, 0.05 Hz). After an equilibration time of 30 minutes, cumulative dose/response curves of McN-A-343 (10^-7 -2×10^-6 M) were recorded simultaneously on 8 organ sections in each case (control curves), using the technique described by van Rossum (1963). After 3 control curves, a fixed concentration of the agonist (for example 5×10^-7, 10^-6, 3×10^-6, 10^-5 or 3×10^-5 M) per organ section was applied and, after stabilisation of the effect, increasing concentrations of the agonist to be tested were added. The nutrient solution used had the following composition (mM): NaCl 118, KCl 4.7, CaCl2 ·2H2 O 2.5, MgSO4 ·7H2 O 0.6, KH2 PO 4 1.2, NaHCO3 25.0 and glucose 11.1. In order to block α2 -adrenoreceptors, the nutrient solution additionally contained 10^-6 M yohimbine.

[3] = molecular target: T1, M2 receptor (cardiac) (Rattus norvegicus, UniProt P10980); assay: Receptor affinity, electrically stimulated left atrium of the rat; conditions: agonist carbachol, Schild slope normalised to 1.00, read-out: pA2 ± SEM, M2 receptor (cardiac) (converted)
T1 construct: isolated, left atria of rats (male 250-350 g); from tissue; host or cells: rat left atrium (isolated, male rats 250-350 g)
T1 sequence (P10980 1-466): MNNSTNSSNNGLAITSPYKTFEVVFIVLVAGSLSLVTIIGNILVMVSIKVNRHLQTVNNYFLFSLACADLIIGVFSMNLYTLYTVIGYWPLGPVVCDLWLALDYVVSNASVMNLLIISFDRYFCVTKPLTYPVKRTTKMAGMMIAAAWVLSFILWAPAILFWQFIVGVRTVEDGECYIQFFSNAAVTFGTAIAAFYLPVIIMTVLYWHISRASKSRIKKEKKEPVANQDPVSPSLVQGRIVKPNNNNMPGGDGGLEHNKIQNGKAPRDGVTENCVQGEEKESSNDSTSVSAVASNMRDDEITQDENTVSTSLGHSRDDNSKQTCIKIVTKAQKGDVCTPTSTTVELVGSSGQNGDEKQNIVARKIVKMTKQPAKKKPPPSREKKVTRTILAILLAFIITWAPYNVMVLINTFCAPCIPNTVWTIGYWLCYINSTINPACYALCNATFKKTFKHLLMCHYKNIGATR
Description: The affinity of (±)-4,9-dihydro-3-methyl-4-[(4-methyl-1-piperazinyl)-acetyl]-10H-thieno[3,4-b][1,5]benzodiazepin-10-one (telenzepine, compound 2 in Table 7) and its conformers [(+)-enantiomer=compound 1, (-)-enantiomer=compound 3] to muscarinic M1 (ganglionic type) and M2 (cardiac type) receptors was investigated by the following methods:
Electrically Stimulated Left Atrium of the Rat (Eltze et al., 1985, Europ. J. Pharmacol. 112, 211-224).
Isometric contractions (HSE force transducer, K-30; Watanabe Linear Corder Mark 5) of isolated, left atria of rats (male 250-350 g) were recorded in an organ bath (10 ml, Tyrode nutrient solution, 31° C., gassing with carbogen, initial tension of the organs 0.25 g) under electrical stimulation (HSE stimulator; hook-shaped Pt electrodes at the base of the bath and immersed, annular Pt electrodes 1 cm below the water surface of the bath; 7 V, 3 ms, 2 Hz). After an equilibration time of 30 minutes, cumulative dose/response curves of carbachol (10^-8 -10^-6 M, in the presence of the antagonist also up to 10^-5 or 10^-4 M) were recorded simultaneously on 4 organs in each case by the technique described by van Rossum (1963). The substance to be tested was added to the organ baths 20 minutes before application of the carbachol. The pauses between the individual dose/response curves were 30-45 minutes.
The Tyrode nutrient solution used had the following composition (mM): NaCl 130, KCl 2.0, CaCl2 ·2H2 O 1.8, MgCl2 ·6H2 O 0.98, NaHCO3 12.0, NaH2 PO4 0.42 and glucose monohydrate 5.6. pA2 values (-log of the molar dissociation constants of the competitive antagonist-receptor complex) were determined by linear regression using the Schild plot: pA2 =-log [B/(x-1)], (Arunlakshana and Schild, 1959).
Table 7 below gives pA2 values of the substances, for which the slope of the regression lines for theoretically competitive antagonism have been normalised to 1.00 (Tallarida et al., 1979).

[4] = test system: modified Shay rat (lesion formation and acid secretion); assay: Antiulcerogenic and secretion-inhibiting action on the modified Shay rat; format: in vivo
Description: The excellent gastric protective action and the gastric secretion-inhibiting action of the compound (+)-4,9-dihydro-3-methyl-4-[(4-methyl-1-piperazinyl)-acetyl]-10H-thieno[3,4-b][1,5]benzodiazepin-10-one (=compound 1 in Table 8 below) in comparison with the corresponding (-)-enantiomer (=compound 3) and with the racemate (=compound 2) can be detected in studies on the modified Shay rat. The effect of the stated compounds after intravenous (i.v.) administration on the formation of lesions and the acid secretion in the modified Shay rat is shown in Table 8 below.
Ulcers are provoked in rats (female, 180-200 g, 4 animals per cage on high grids) which have fasted for 24 hours, by pylorus ligature (under diethyl ether anaesthesia) and oral administration of 100 mg/10 ml/kg of acetylsalicylic acid. The substances to be tested are administered intravenously (1 ml/kg) directly after the pylorus ligature. The wound is closed by means of Michel clamps. 4 hours afterwards, the animals are sacrificed under anaesthesia with ether by Atlas dislocation, and resection of the stomach.
The stomach is opened along the greater curvature and clamped to a cork sheet, the amount of secreted gastric juice (volume) is determined first and its HCl content (titration with sodium hydroxide solution) being determined subsequently. The number and size (=diameter) of ulcers present are determined using a stereomicroscope, under 10×magnification. The product of severity (according to the following point scale) and number of ulcers serves as an individual lesion index.
The reduction in the means lesion index of each treated group compared with the control group (=100%) serves as a measure of the antiulcerogenic effect. The ED50 is the dose which reduces the mean lesion index or the HCl secretion by 50% compared with the control.

[5] = at time 60 min after administration, 60 min
[6] = modified Shay rat, i.v., interpolated dose, 4 h, N=24, listed as 1, 240 min

Cc1scc2c1N(C(=O)CN1CCN(C)CC1)c1ccccc1NC2=O [(+)-telenzepine, (+)-4,9-dihydro-3-methyl-4-[(4-methyl-1-piperazinyl)-acetyl]-10H-thieno[3,4-b][1,5]benzodiazepin-10-one] was tested, and the “Mean bronchospasmolytic activity, percentage increase of Vmaxe vs control spasm” value ([1]; 0.03 μmol/kg i.v.) was 13 ± 4%, the “Mean bronchospasmolytic activity, percentage increase of tidal volume (TV) vs control spasm” value ([1]; 0.03 μmol/kg i.v.) was 17 ± 4% and the “Mean bronchospasmolytic activity, percentage increase of Vmaxe vs control spasm” value ([1]; 0.05 μmol/kg i.v.) was 21 ± 4%. For the same molecule, the “Mean bronchospasmolytic activity, percentage increase of tidal volume (TV) vs control spasm” value ([1]; 0.05 μmol/kg i.v.) was 25 ± 5%, the “Mean bronchospasmolytic activity, percentage increase of Vmaxe vs control spasm” value ([1]; 0.1 μmol/kg i.v.) was 57 ± 5% and the “Mean bronchospasmolytic activity, percentage increase of tidal volume (TV) vs control spasm” value ([1]; 0.1 μmol/kg i.v.) was 62 ± 5%. The “Mean bronchospasmolytic activity, percentage increase of Vmaxe vs control spasm” value ([1]; 0.5 μmol/kg i.v.) was 87 ± 3%, the “Mean bronchospasmolytic activity, percentage increase of tidal volume (TV) vs control spasm” value ([1]; 0.5 μmol/kg i.v.) was 92 ± 3% and the “Mean bronchospasmolytic activity, percentage increase of Vmaxe vs control spasm” value ([1]; 1 μmol/kg i.v.) was 82 ± 3%. The “Mean bronchospasmolytic activity, percentage increase of tidal volume (TV) vs control spasm” value ([1]; 1 μmol/kg i.v.) was 85 ± 3%, the “Bronchospasmolytic activity, percentage increase of Vmaxe vs control spasm” value ([1]; 0.03 μmol/kg i.v.) was 19 ± 6% and the “Bronchospasmolytic activity, percentage increase of tidal volume (TV) vs control spasm” value ([1]; 0.03 μmol/kg i.v.) was 23 ± 7%. For the same molecule, the “Bronchospasmolytic activity, percentage increase of Vmaxe vs control spasm” value ([1]; 0.05 μmol/kg i.v.) was 35 ± 7%, the “Bronchospasmolytic activity, percentage increase of tidal volume (TV) vs control spasm” value ([1]; 0.05 μmol/kg i.v.) was 39 ± 7% and the “Bronchospasmolytic activity, percentage increase of Vmaxe vs control spasm” value ([1]; 0.1 μmol/kg i.v.) was 61 ± 6%. For the same molecule, the “Bronchospasmolytic activity, percentage increase of tidal volume (TV) vs control spasm” value ([1]; 0.1 μmol/kg i.v.) was 64 ± 7%, the “Bronchospasmolytic activity, percentage increase of Vmaxe vs control spasm” value ([1]; 0.5 μmol/kg i.v.) was 95 ± 4% and the “Bronchospasmolytic activity, percentage increase of tidal volume (TV) vs control spasm” value ([1]; 0.5 μmol/kg i.v.) was 100 ± 4%. The “Bronchospasmolytic activity, percentage increase of Vmaxe vs control spasm” value ([1]; 1 μmol/kg i.v.) was 88 ± 4%, the “Bronchospasmolytic activity, percentage increase of tidal volume (TV) vs control spasm” value ([1]; 1 μmol/kg i.v.) was 88 ± 4% and the “ED50 of bronchospasmolytic activity, TV” value [1, 5] was 0.07 μmol/kg i.v. For the same molecule, the “ED50 of bronchospasmolytic activity, Vmaxe” value [1, 5] was 0.07 μmol/kg i.v, the “dose range of dose- and time-dependent inhibition of acetylcholine-induced bronchospasm” value ([1]; i.v.) was 0.03-1 μmol/kg i.v and the “persistence of maximum effect” value ([1]; i.v., observation period) was no less than 1 h. For the same molecule, the “ED50 of mean bronchospasmolytic activity, TV” value ([1]; mean activity 0-60 min, 60 min) was 0.08 μmol/kg i.v, the “ED50 of mean bronchospasmolytic activity, Vmaxe” value ([1]; mean activity 0-60 min, 60 min) was 0.1 μmol/kg i.v and the “pA2 ± SEM, M1 receptor (ganglionic)” value [2] was 9.12 ± 0.08. The Kb [3] was 21.4 nM, the “Gastric protective action, reduction of lesion index, about ED50” value [4, 6] was roughly 0.01 mg/kg i.v and the “Inhibition of acid secretion, reduction of HCl secretion, about ED50” value [4, 6] was roughly 0.085 mg/kg i.v. For the same molecule, the “protective action with respect to stomach and intestine, doses compared with acid secretion-inhibiting doses” value ([4]; warm-blooded animals) was “observed with the administration of doses which are below the doses which inhibit acid secretion”.
